Assay results reported in PubChem BioAssay (NCI).
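GI50 marks 50% less growth. At the TGI there is no net growth.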

Assays:
Assay in all cases: growth of human tumour cells (NCI), 384-well format
786-0 renal = test system: 786-0 renal
A498 renal = test system: A498 renal
A549 NSCLC = test system: A549 NSCLC
ACHN renal = test system: ACHN renal
BT-549 breast = test system: BT-549 breast
CAKI-1 renal = test system: CAKI-1 renal
CCRF-CEM leukemia = test system: CCRF-CEM leukemia
COLO 205 colon = test system: COLO 205 colon
DU-145 prostate = test system: DU-145 prostate
EKVX NSCLC = test system: EKVX NSCLC
HCC-2998 colon = test system: HCC-2998 colon
HCT-116 colon = test system: HCT-116 colon
HCT-15 colon = test system: HCT-15 colon
HL-60(TB) leukemia = test system: HL-60(TB) leukemia
HOP-62 NSCLC = test system: HOP-62 NSCLC
HOP-92 NSCLC = test system: HOP-92 NSCLC
HS 578T breast = test system: HS 578T breast
HT29 colon = test system: HT29 colon
IGROV1 ovarian = test system: IGROV1 ovarian
K-562 leukemia = test system: K-562 leukemia
KM12 colon = test system: KM12 colon
LOX IMVI melanoma = test system: LOX IMVI melanoma
MALME-3M melanoma = test system: MALME-3M melanoma
MCF7 breast = test system: MCF7 breast
MDA-MB-231 breast = test system: MDA-MB-231 breast
MDA-MB-435 melanoma = test system: MDA-MB-435 melanoma
MDA-MB-468 breast = test system: MDA-MB-468 breast
MOLT-4 leukemia = test system: MOLT-4 leukemia
NCI-H226 lung = test system: NCI-H226 lung
NCI-H23 lung = test system: NCI-H23 lung
NCI-H322M lung = test system: NCI-H322M lung
NCI-H460 NSCLC = test system: NCI-H460 NSCLC
NCI-H522 lung = test system: NCI-H522 lung
NCI/ADR-RES ovarian = test system: NCI/ADR-RES ovarian
OVCAR-3 ovarian = test system: OVCAR-3 ovarian
OVCAR-4 ovarian = test system: OVCAR-4 ovarian
OVCAR-5 ovarian = test system: OVCAR-5 ovarian
PC-3 prostate = test system: PC-3 prostate
RPMI-8226 leukemia = test system: RPMI-8226 leukemia
RXF 393 renal = test system: RXF 393 renal
SF-268 CNS = test system: SF-268 CNS
SF-295 CNS = test system: SF-295 CNS
SF-539 CNS = test system: SF-539 CNS
SK-MEL-2 melanoma = test system: SK-MEL-2 melanoma
SK-MEL-28 melanoma = test system: SK-MEL-28 melanoma
SK-MEL-5 melanoma = test system: SK-MEL-5 melanoma
SK-OV-3 ovarian = test system: SK-OV-3 ovarian
SN12C renal = test system: SN12C renal
SNB-19 CNS = test system: SNB-19 CNS
SNB-75 CNS = test system: SNB-75 CNS
SR leukemia = test system: SR leukemia
TK-10 renal = test system: TK-10 renal
U251 glioblastoma = test system: U251 glioblastoma
UACC-62 melanoma = test system: UACC-62 melanoma
UO-31 renal = test system: UO-31 renal

With `O=C1NC(=O)[C@@H](c2cn3c4c(cccc24)CCC3)[C@@H]1c1c[nH]c2ccccc12` as the molecule, how does the GI50 ([…]-0 renal) read?
Its GI50 is 332 nM.

And the TGI (786-0 renal)?
The TGI was 12400 nM.

And the GI50 (A498 renal)?
Its GI50 is 307 nM.

And the TGI (A498 renal)?
Its TGI is 8830 nM.

What about the GI50 (A549 NSCLC) of the same molecule?
The GI50 was 413 nM.

And the TGI (A549 NSCLC)?
Its TGI is 14100 nM.

And the GI50 (ACHN renal)?
The GI50 was 409 nM.

What about the TGI (ACHN renal) of the same molecule?
Its TGI is 14500 nM.

What about the GI50 (BT-549 breast) of the same molecule?
The GI50 was 154 nM.

What about the TGI (BT-549 breast) of the same molecule?
The TGI was 718 nM.

What about the GI50 (CAKI-1 renal) of the same molecule?
The GI50 was 71.2 nM.

What about the TGI (CAKI-1 renal) of the same molecule?
The TGI was 12000 nM.

What about the GI50 (CCRF-CEM leukemia) of the same molecule?
Its GI50 is 119 nM.

What about the TGI (CCRF-CEM leukemia) of the same molecule?
The TGI was 246 nM.

And the GI50 (COLO 205 colon)?
Its GI50 is 281 nM.

And the TGI (COLO 205 colon)?
Its TGI is 7770 nM.

And the GI50 (DU-145 prostate)?
The GI50 was 451 nM.

And the TGI (DU-145 prostate)?
The TGI was 2990 nM.

And the GI50 (EKVX NSCLC)?
Its GI50 is 340 nM.

And the TGI (EKVX NSCLC)?
The TGI was 13900 nM.

And the TGI (HCC-2998 colon)?
Its TGI is 1260 nM.

And the GI50 (HCT-116 colon)?
Its GI50 is 285 nM.

What about the TGI (HCT-116 colon) of the same molecule?
Its TGI is 3630 nM.

What about the GI50 (HCT-15 colon) of the same molecule?
The GI50 was 40.6 nM.

And the TGI (HCT-15 colon)?
The TGI was 4940 nM.

And the GI50 (HL-60(TB) leukemia)?
Its GI50 is 124 nM.

What about the TGI (HL-60(TB) leukemia) of the same molecule?
Its TGI is 252 nM.

And the GI50 (HOP-62 NSCLC)?
The GI50 was 252 nM.

And the TGI (HOP-62 NSCLC)?
The TGI was 11800 nM.

What about the GI50 (HOP-92 NSCLC) of the same molecule?
Its GI50 is 410 nM.

And the TGI (HOP-92 NSCLC)?
Its TGI is 10700 nM.

What about the GI50 (HS 578T breast) of the same molecule?
The GI50 was 123 nM.

What about the TGI (HS 578T breast) of the same molecule?
Its TGI is 295 nM.

And the GI50 (HT29 colon)?
Its GI50 is 180 nM.

What about the TGI (HT29 colon) of the same molecule?
Its TGI is 494 nM.

And the GI50 (IGROV1 ovarian)?
Its GI50 is 403 nM.

And the TGI (IGROV1 ovarian)?
The TGI was 12400 nM.

What about the GI50 (K-562 leukemia) of the same molecule?
The GI50 was 21.5 nM.

What about the TGI (K-562 leukemia) of the same molecule?
The TGI was 373 nM.

And the GI50 (KM12 colon)?
Its GI50 is 28 nM.

What about the TGI (KM12 colon) of the same molecule?
The TGI was 1990 nM.

And the GI50 (LOX IMVI melanoma)?
Its GI50 is 453 nM.

What about the TGI (LOX IMVI melanoma) of the same molecule?
Its TGI is 2100 nM.

What about the GI50 (MALME-3M melanoma) of the same molecule?
Its GI50 is 260 nM.

What about the TGI (MALME-3M melanoma) of the same molecule?
The TGI was 11500 nM.

And the GI50 (MCF7 breast)?
Its GI50 is 141 nM.

And the TGI (MCF7 breast)?
Its TGI is 11600 nM.

What about the GI50 (MDA-MB-231 breast) of the same molecule?
The GI50 was 398 nM.

And the TGI (MDA-MB-231 breast)?
Its TGI is 15400 nM.

And the GI50 (MDA-MB-435 melanoma)?
The GI50 was 24.9 nM.

What about the TGI (MDA-MB-435 melanoma) of the same molecule?
The TGI was 141 nM.

What about the GI50 (MDA-MB-468 breast) of the same molecule?
The GI50 was 53.3 nM.

And the TGI (MDA-MB-468 breast)?
The TGI was 204 nM.

And the GI50 (MOLT-4 leukemia)?
The GI50 was 52 nM.

And the TGI (MOLT-4 leukemia)?
The TGI was 199 nM.

And the GI50 (NCI-H226 lung)?
Its GI50 is 400 nM.

And the TGI (NCI-H226 lung)?
Its TGI is 7390 nM.

What about the GI50 (NCI-H23 lung) of the same molecule?
Its GI50 is 269 nM.

And the TGI (NCI-H23 lung)?
The TGI was 6960 nM.

What about the GI50 (NCI-H322M lung) of the same molecule?
The GI50 was 558 nM.

And the TGI (NCI-H322M lung)?
The TGI was 13800 nM.

What about the GI50 (NCI-H460 NSCLC) of the same molecule?
Its GI50 is 155 nM.

What about the TGI (NCI-H460 NSCLC) of the same molecule?
Its TGI is 630 nM.

And the GI50 (NCI-H522 lung)?
The GI50 was 13.2 nM.

And the TGI (NCI-H522 lung)?
Its TGI is 93.7 nM.

What about the GI50 (NCI/ADR-RES ovarian) of the same molecule?
The GI50 was 203 nM.

And the TGI (NCI/ADR-RES ovarian)?
The TGI was 787 nM.

And the GI50 (OVCAR-3 ovarian)?
The GI50 was 21.9 nM.

What about the TGI (OVCAR-3 ovarian) of the same molecule?
Its TGI is 149 nM.

And the GI50 (OVCAR-4 ovarian)?
Its GI50 is 2160 nM.

What about the TGI (OVCAR-4 ovarian) of the same molecule?
The TGI was 20700 nM.

What about the GI50 (OVCAR-5 ovarian) of the same molecule?
Its GI50 is 1620 nM.

What about the TGI (OVCAR-5 ovarian) of the same molecule?
Its TGI is 17300 nM.

And the GI50 (PC-3 prostate)?
The GI50 was 145 nM.

What about the TGI (PC-3 prostate) of the same molecule?
The TGI was 8340 nM.

And the GI50 (RPMI-8226 leukemia)?
The GI50 was 154 nM.

And the TGI (RPMI-8226 leukemia)?
Its TGI is 308 nM.

And the GI50 (RXF 393 renal)?
Its GI50 is 26.8 nM.

What about the TGI (RXF 393 renal) of the same molecule?
Its TGI is 380 nM.

What about the GI50 (SF-268 CNS) of the same molecule?
The GI50 was 281 nM.

What about the TGI (SF-268 CNS) of the same molecule?
Its TGI is 2700 nM.

What about the GI50 (SF-295 CNS) of the same molecule?
Its GI50 is 246 nM.

What about the TGI (SF-295 CNS) of the same molecule?
Its TGI is 1230 nM.

What about the GI50 (SF-539 CNS) of the same molecule?
Its GI50 is 244 nM.

What about the TGI (SF-539 CNS) of the same molecule?
The TGI was 1070 nM.

What about the GI50 (SK-MEL-2 melanoma) of the same molecule?
Its GI50 is 256 nM.

What about the TGI (SK-MEL-2 melanoma) of the same molecule?
The TGI was 497 nM.

What about the GI50 (SK-MEL-28 melanoma) of the same molecule?
The GI50 was 311 nM.

What about the TGI (SK-MEL-28 melanoma) of the same molecule?
The TGI was 16600 nM.

And the GI50 (SK-MEL-5 melanoma)?
The GI50 was 115 nM.

And the TGI (SK-MEL-5 melanoma)?
The TGI was 595 nM.

What about the GI50 (SK-OV-3 ovarian) of the same molecule?
Its GI50 is 184 nM.

And the TGI (SK-OV-3 ovarian)?
The TGI was 3710 nM.

And the GI50 (SN12C renal)?
The GI50 was 401 nM.

And the TGI (SN12C renal)?
Its TGI is 12700 nM.

What about the GI50 (SNB-19 CNS) of the same molecule?
Its GI50 is 347 nM.

And the TGI (SNB-19 CNS)?
The TGI was 12000 nM.

And the GI50 (SNB-75 CNS)?
Its GI50 is 246 nM.

And the TGI (SNB-75 CNS)?
The TGI was 10100 nM.

What about the TGI (SR leukemia) of the same molecule?
Its TGI is 14.9 nM.

And the GI50 (TK-10 renal)?
The GI50 was 420 nM.

What about the TGI (TK-10 renal) of the same molecule?
Its TGI is 15700 nM.

What about the GI50 (U251 glioblastoma) of the same molecule?
The GI50 was 280 nM.

And the TGI (U251 glioblastoma)?
Its TGI is 1790 nM.

And the GI50 (UACC-62 melanoma)?
Its GI50 is 96.9 nM.

What about the TGI (UACC-62 melanoma) of the same molecule?
The TGI was 525 nM.

What about the GI50 (UO-31 renal) of the same molecule?
The GI50 was 365 nM.

And the TGI (UO-31 renal)?
Its TGI is 16700 nM.
